Read-outs that look alike come from different tables or passages of the source.
Experiments:
[1] = test system: U937 leukemia cell; experiment: U937 leukemia cell assay (antiproliferative activity); type: cell-based; settings: for U937, -log IC50: U937 leukemia cells; for U937, rel.: geometric mean of the ratios relative to 1α,25(OH)2D3, higher = more potent
Source text: (§1) The present invention provides a hitherto undisclosed series of vitamin D analogues which is characterised by the presence of an additional hydroxy group or halogen atom in the 26 position of the side chain.

[2] = test system: MCF-7 mammary cancer cell; experiment: MCF-7 mammary cancer cell assay (antiproliferative activity); type: cell-based; settings: for MCF-7, -log IC50: MCF-7 mammary cancer cells; for MCF-7, rel.: geometric mean of the ratios relative to 1α,25(OH)2D3, higher = more potent
Source text: as §1

[3] = calcemic activity, rat calciuric model (urinary excretion of calcium)
Source text: as §1

[4] = test system: HaCaT; experiment: HaCaT assay, a psoriasis model; type: cell-based; settings: for HaCaT, rel.: geometric mean of the ratios relative to 1α,25(OH)2D3, higher = more potent; for HaCaT, -log IC50: HaCaT cells
Source text: as §1

[5] = in vitro model of metabolic stability, rat liver homogenate S-9; type: in vitro ADME
Source text: Another problem using vitamin D analogues in the non-topical treatment of hyperproliferative diseases, such as cancer, is metabolic stability in vivo. This stability has to be above a certain minimum level, for a compound to be used in practical therapy.

[6] = test system: mammary tumours; settings: rats with mammary tumours, 1 μg/kg body weight for 28 days; cited from earlier work
[7] = chronically uraemic rats with secondary hyperparathyroidism; cited from earlier work
[8] = test system: human carcinoma cells; settings: in vitro; cited from earlier work
[9] = relative to 1α,25(OH)2D3; cited from earlier work
[10] = test system: different types of cancer cells; settings: brain glial tumor, MCF-7, NB4, HL-60, acute myeloid leukemia, MG-63 cells; cited from earlier work

Row | Compound | U937, -log IC50 [1] | U937, rel. [1] | MCF-7, -log IC50 [2] | MCF-7, rel. [2] | Calcem.; in vivo ([3]; rat, in vivo) | HaCaT, rel. [4] | T½ ([5]; rat liver homogenate S-9) [h] | reduction of the initial tumour volume [6] [%] | serum calcium concentration [6] | Calcem.; in vivo ([3]; rat calciuric model, geometric mean of the ratios relative to 1α,25(OH)2D3) | HaCaT, -log IC50 [4] | plasma PTH level [7] | plasma phosphate level [7] | inhibiting the invasiveness of human carcinoma cells [8] | calcemic vitamin D activity, urinary excretion of calcium in rats, % of that of 1α,25(OH)2D3 [9] [%] | inhibitory activity on proliferation of cancer cells [10] | S-9, metab. in vitr.: fraction left after 1 hour incubation ([5]; rat liver homogenate S-9, 1 hour incubation) | stability in in vitro model of metabolic stability ([5]; rat liver homogenate S-9, compared to seocalcitol and 1α,25(OH)2D3) | S-9, metab. in vitr.: fraction left after 1 hour incubation [5] | half-life ([5]; rat) [h]
1 | C=C1/C(=C\C=C2/CCC[C@]3(C)[C@@H]([C@H](C)CCCC(C)(C)O)CC[C@@H]23)C[C@@H](O)C[C@@H]1O [1α,25(OH)2D3] | 7.5 ± 0.3 | 1.0 | 7.7 ± 0.3 | 1.0 | 1.0 | 1.0 | 2.5 |  |  |  |  |  |  |  |  |  |  |  |  | 
2 | C=C1C(=CC=C2CCCC3(C)C2CCC3C(C)C(C#CCC(O)(CC)CC)OCC)CC(O)CC1O (stereo not drawn) [CB1093, 20-epi-22-ethoxy-23-yne-24a, 26a, 27a, trishomo-1α,25(OH)2D3 vitamin D3] | 9.5 ± 0.1 | 74 | 10.2 ± 0.3 | 311 |  | 18 |  | 49 | slight increase | 0.27 | 8.7 ± 0.9 | significantly decreased | significantly decreased | potent activity | 27 | potent inhibitory activity | 0.02 | quite low |  | 
3 | C=C1C(=CC=C2CCCC3(C)C2CCC3C(C)C(C#CCC(O)(CC)C(C)O)OCC)CC(O)CC1O [Compound 103, 1(S),3(R)-Dihydroxy-20(R)-(5(S),6(S)-dihydroxy-1(S)-ethoxy-5-ethyl-2-heptyn-1-yl)-9,10-secopregna-5(Z),7(E),10(19)-triene] | 9.0 ± 0.2 | 36 | 9.9 ± 0.1 | 153 | 0.11 | 38 |  |  |  |  | 9.0 ± 0.3 |  |  |  |  |  |  |  | 0.43 | 
4 | C=C1/C(=C\C=C2/CCC[C@]3(C)[C@@H]([C@@H](C)[C@@H](C#CC[C@@](O)(CC)[C@@H](C)O)OCC)CC[C@@H]23)C[C@@H](O)C[C@@H]1O [Compound 108, 1(S),3(R)-Dihydroxy-20(R)-(5(S),6(R)-dihydroxy-1(S)-ethoxy-5-ethyl-2-heptyn-1-yl)-9,10-secopregna-5(Z),7(E),10(19)-triene] | 8.9 ± 0.2 | 49 | 9.8 ± 0.2 | 89 | 0.6 | 30 |  |  |  |  | 8.8 ± 0.2 |  |  |  |  |  |  |  | 0.29 | 
5 | C=C1/C(=C\C=C2/CCC[C@]3(C)[C@@H]([C@H](C)/C=C/C=C/C(O)(CC)CC)CC[C@@H]23)C[C@@H](O)C[C@@H]1O [seocalcitol] |  |  |  |  |  |  |  |  |  |  |  |  |  |  |  |  |  |  |  | 1.3

Source: patent publication US6573255B1, “Vitamin D analogues” (Leo Pharmaceutical Products Ltd., A/S, priority 1999, dated 2003)
